# Measurements as given in US4250170A, “Antibacterial agents Bu-2349A and B and method of using same” (Bristol-Myers Company, priority 1979, dated 1981).
# Like-named read-outs stand apart in the source and are kept apart here.
# What was measured:
# [1] = test system: S. aureus, E. coli, K. pneumoniae, P. vulgaris and P. mirabilis; experiment: experimental infections in mice, overall statement; format: in vivo; conditions: im
# Procedure: (§1) The in vivo antibacterial activity of Bu-2349A was determined by experimental infections in mice. Mice were challenged via the intraperitoneal route with a 100 X LD50 dose of the pathogens in a 5% suspension of hog gastric mucin (American Laboratories, Omaha, Neb.). Bu-2349A was administered by the intramuscular route immediately after the bacterial challenge.
# [2] = test system: Hemophylus influenzae (He-2); experiment: MIC, two-fold agar dilution; format: cell-based; conditions: 18 h; Table 3; GC agar, 10^-2 dilution
# [3] = test system: S. aureus (Sa-63); experiment: MIC, agar dilution; format: cell-based; conditions: Staphylococcus aureus, 18 h
# Procedure: (§2) The minimum inhibitory concentrations (MIC) of Bu-2349A and B were determined against a wide variety of bacteria by the two-fold agar dilution method. Mueller-Hinton agar medium was generally used for the determination of bacterial MIC except for species of Streptococcus, Neisseria and Hemophilus for which Gonococcus agar medium (GC agar, Nissui Co., Tokyo) was used. Gifu anaerobe agar medium (GAM agar, Eiken Co., Tokyo) was used for anaerobic bacteria. The MIC's were determined after overnight incubation at 37° C. with an initial inoculum equivalent to a 10^-4 dilution of an 18-hour culture for the aerobic and anaerobic bacteria, except for Streptococcus, Neisseria and Hemophilus for which a 10^-2 dilution was used.
# (§3) The influence of inoculum size on MIC was tested on Mueller-Hinton agar using an inoculum of […], 10^-2 or 10^-4 dilution of the overnight culture of test organisms.
# (§4) The effect of media pH on the MIC's of Bu-2349A was determined at three pH levels (6, 7 and 8) using Mueller-Hinton agar.
# (§5) The media effect on the MIC's of Bu-2349A was tested using four kinds of assay media: Mueller-Hinton agar (MHA), nutrient agar (NA), heart infusion agar (HIA) and brain heart infusion agar (BHIA). The pH was adjusted at 7 and a 10^-4 dilution of overnight culture was used for the inoculum.
# [4] = test system: P. vulgaris (Pv-3); experiment: MIC, agar dilution; format: cell-based; conditions: Proteus vulgaris, 18 h
# Procedure: as §2, §3, §4, §5
# [5] = test system: Mycobacterium 607 (M6-1); experiment: MIC, two-fold agar dilution; format: cell-based; conditions: 18 h, Table 3, Mueller-Hinton agar, 10^-4 dilution
# [6] = test system: Bacteroides fragilis (Bf-1); experiment: MIC against anaerobic bacteria; format: cell-based; conditions: 18 h, Table 4, GAM Medium, pH 7
# [7] = test system: Sphaerophorus necrophorus (Sn-1); experiment: MIC against anaerobic bacteria; format: cell-based; conditions: Fusobacterium necrophorum, 18 h; Table 4; GAM Medium, pH 7
# [8] = test system: Proteus stuartii (Ps-2), AAC(2'); experiment: MIC, two-fold agar dilution; format: cell-based; conditions: 18 h; Table 3; Mueller-Hinton agar, 10^-4 dilution; enzyme AAC(2')
# [9] = test system: Peptostreptococcus anaerobium B43 (Pb-1); experiment: MIC against anaerobic bacteria; format: cell-based; conditions: 18 h, Table 4, GAM Medium, pH 7
# [10] = test system: E. coli Juhl; experiment: experimental infections in mice; format: in vivo; conditions: Escherichia coli, 120 h, im, 100 X LD50 ip challenge, 5 days, read-out: PD50 (median protective dose)
# Procedure: as §1
# [11] = solubility; format: physicochemical; conditions: hydrochloride salt
# [12] = test system: Bacillus subtilis PCI 219 (Bs-1); experiment: MIC, two-fold agar dilution; format: cell-based; conditions: 18 h
# Procedure: as §2, §3, §4, §5
# [13] = test system: Escherichia coli ML-1630 (Ec-5), APH(3')-1; experiment: MIC, two-fold agar dilution; format: cell-based; conditions: 18 h
# Procedure: as §2, §3, §4, §5
# [14] = test system: Peptococcus aerogenes ATCC 14963 (Pe-101); experiment: MIC against anaerobic bacteria; format: cell-based; conditions: Peptoniphilus asaccharolyticus, ATCC14963, 18 h; Table 4; GAM Medium, pH 7
# [15] = test system: Escherichia coli NIHJ (Ec-1); experiment: MIC, two-fold agar dilution; format: cell-based; conditions: 18 h, Table 3, Mueller-Hinton agar, 10^-4 dilution
# [16] = test system: anaerobic organisms; experiment: in vitro activity against anaerobic bacteria, overall statement; format: cell-based; conditions: most of the anaerobic organisms tested
# [17] = test system: Escherichia coli (Ec-9), AAC(6')-1; experiment: MIC, two-fold agar dilution; format: cell-based; conditions: 18 h, Table 3, Mueller-Hinton agar, 10^-4 dilution, enzyme AAC(6')-1
# [18] = test system: Neisseria meningitidis (Nm-1); experiment: MIC, two-fold agar dilution; format: cell-based; conditions: 18 h, Table 3, GC agar, 10^-2 dilution
# [19] = test system: Staphylococcus aureus Smith (Sa-2); experiment: MIC, two-fold agar dilution; format: cell-based; conditions: 18 h, Table 3, Mueller-Hinton agar, 10^-4 dilution
# [20] = test system: Veillonella parvula ATCC 17745 (Vp-1); experiment: MIC against anaerobic bacteria; format: cell-based; conditions: ATCC17745, 18 h, Table 4, GAM Medium, pH 7
# [21] = pH 6, Table 6, Mueller-Hinton Agar, 10^-4 dilution, pH 6, read-out: MIC
# [22] = pH 7, Table 5, Mueller-Hinton Agar, pH 7, inoculum 10^-2 dil., read-out: MIC
# [23] = pH 7, Table 5, Mueller-Hinton Agar, pH 7, inoculum 10^-4 dil., read-out: MIC
# [24] = pH 7, Table 6, Mueller-Hinton Agar, 10^-4 dilution, pH 7, read-out: MIC
# [25] = pH 7, Table 7, pH 7, 10^-4 dilution, BHIA, read-out: MIC
# [26] = pH 7, Table 7, pH 7, 10^-4 dilution, HIA, read-out: MIC
# [27] = pH 7, Table 7, pH 7, 10^-4 dilution, MHA, read-out: MIC
# [28] = pH 7, Table 7, pH 7, 10^-4 dilution, NA, read-out: MIC
# [29] = pH 8, Table 6, Mueller-Hinton Agar, 10^-4 dilution, pH 8, read-out: MIC
# [30] = pH 6, Table 6, Mueller-Hinton Agar, 10^-4 dilution, pH 6
# [31] = pH 7, Table 5, Mueller-Hinton Agar, pH 7, inoculum 10^0 dil.
# [32] = pH 7, Table 5, Mueller-Hinton Agar, pH 7, inoculum 10^-2 dil.
# [33] = pH 7, Table 5, Mueller-Hinton Agar, pH 7, inoculum 10^-4 dil.
# [34] = pH 7, Table 6, Mueller-Hinton Agar, 10^-4 dilution, pH 7
# [35] = pH 7, Table 7, pH 7, 10^-4 dilution, BHIA
# [36] = pH 7, Table 7, pH 7, 10^-4 dilution, HIA
# [37] = pH 7, Table 7, pH 7, 10^-4 dilution, MHA
# [38] = pH 7, Table 7, pH 7, 10^-4 dilution, NA
# [39] = pH 8, Table 6, Mueller-Hinton Agar, 10^-4 dilution, pH 8
structure (smiles),measurement,setting,value
C=C1OC(OC2C(CO)OC(Oc3ccc(C(=O)NCCCNCCCCNCCCCN)cc3)C2O)C(O)C(OC2OC(CO)C(OC3OC(C)C(N)C(O)C3NC(=O)C(C)N)C(O)C2O)C1O (stereo not drawn) [Bu-2349A],protection against systemic lethal infections,[1],good protection
same,MIC,[2],> 100 µg/mL
same,MIC,[3]; [21],> 50 µg/mL
same,MIC,[3]; pH 7,12.5 µg/mL
same,MIC,[3]; [22],6.3 µg/mL
same,MIC,[3]; [23],6.3 µg/mL
same,MIC,[3]; [24],6.3 µg/mL
same,MIC,[3]; [25],6.3 µg/mL
same,MIC,[3]; [26],3.1 µg/mL
same,MIC,[3]; [27],6.3 µg/mL
same,MIC,[3]; [28],6.3 µg/mL
same,MIC,[3]; [29],3.1 µg/mL
same,MIC,[4]; [21],> 50 µg/mL
same,MIC,[4]; pH 7,12.5 µg/mL
same,MIC,[4]; [22],6.3 µg/mL
same,MIC,[4]; [23],6.3 µg/mL
same,MIC,[4]; [24],6.3 µg/mL
same,MIC,[4]; [25],3.1 µg/mL
same,MIC,[4]; [26],1.6 µg/mL
same,MIC,[4]; [27],3.1 µg/mL
same,MIC,[4]; [28],1.6 µg/mL
same,MIC,[4]; [29],6.3 µg/mL
same,MIC,[5],3.1 µg/mL
same,MIC,[6],> 100 µg/mL
same,MIC,[7],> 100 µg/mL
same,MIC,[8],1.6 µg/mL
same,MIC,[9],> 100 µg/mL
same,ED50,[10],5.4 mg/kg
same,"solubility in methanol, ethanol, dimethylsulfoxide and dimethylformamide","[11]; methanol, ethanol, dimethylsulfoxide and dimethylformamide",slightly soluble
same,solubility in other common organic solvents,[11]; other common organic solvents,practically insoluble
same,solubility in water,[11]; water,soluble
same,MIC,"[12]; Table 3, Mueller-Hinton agar, 10^-4 dilution",1.6 µg/mL
same,MIC,[12]; [30],50 µg/mL
same,MIC,[12]; [31],6.3 µg/mL
same,MIC,[12]; [32],3.1 µg/mL
same,MIC,[12]; [33],3.1 µg/mL
same,MIC,[12]; [34],3.1 µg/mL
same,MIC,[12]; [35],6.3 µg/mL
same,MIC,[12]; [36],1.6 µg/mL
same,MIC,[12]; [37],3.1 µg/mL
same,MIC,[12]; [38],0.8 µg/mL
same,MIC,[12]; [39],1.6 µg/mL
same,MIC,"[13]; Table 3, Mueller-Hinton agar, 10^-4 dilution, enzyme APH(3')-1",1.6 µg/mL
same,MIC,[13]; [30],50 µg/mL
same,MIC,[13]; [31],6.3 µg/mL
same,MIC,[13]; [32],3.1 µg/mL
same,MIC,[13]; [33],3.1 µg/mL
same,MIC,[13]; [34],3.1 µg/mL
same,MIC,[13]; [35],3.1 µg/mL
same,MIC,[13]; [36],1.6 µg/mL
same,MIC,[13]; [37],3.1 µg/mL
same,MIC,[13]; [38],1.6 µg/mL
same,MIC,[13]; [39],1.6 µg/mL
same,MIC,[14],> 100 µg/mL
same,MIC,[15],1.6 µg/mL
same,activity against anaerobic organisms,[16],inactive
same,MIC,[17],0.8 µg/mL
same,MIC,[18],> 100 µg/mL
same,MIC,[19],3.1 µg/mL
same,MIC,[20],> 100 µg/mL
